We go through 25 molecules from US7368471B2, “Substituted indole acid derivatives as inhibitors of plasminogen activator inhibitor-1 (PAI-1)” (Wyeth, priority 2001, dated 2008).

Read-outs that look alike come from different tables or passages of the source.

Usually IC50 stands for the concentration that inhibits the measured activity by half. As a reminder, the melting point is the temperature of the solid-liquid transition. Usually inhibition stands for the percentage by which the read-out fell short of the control.

Data set [1] concerns the target T1, recombinant human plasminogen activator inhibitor-1 (PAI-1) (Homo sapiens, UniProt P05121).
T1 construct: purchased Molecular Innovations, Royal Oak, Mich
Description: Modification of the Primary Screen for the PAI-1 Inhibition (IC50). The following applies: footnote b: determined by a modification of the Primary Screen for the PAI-1 Inhibition. Format: biochemical. On the procedure:
(§1) Primary Screen for the PAI-1 Inhibition
(§2) Test compounds are dissolved in DMSO at a final concentration of 10 mM, then diluted 100× in physiologic buffer. The inhibitory assay is initiated by the addition of the test compound (1-100 μM final concentration, maximum DMSO concentration of 0.2%) in a pH 6.6 buffer containing 140 nM recombinant human plasminogen activator inhibitor-1 (PAI-1; Molecular Innovations, Royal Oak, Mich.). Following a 1 hour incubation at room temperature, 70 nM of recombinant human tissue plasminogen activator (tPA) is added, and the combination of the test compound, PAI-1 and tPA is incubated for an additional 30 minutes. Following the second incubation, Spectrozyme-tPA (American Diagnostica, Greenwich, Conn.), a chromogenic substrate for tPA, is added and absorbance read at 405 nm at 0 and 60 minutes. Relative PAI-1 inhibition is equal to the residual tPA activity in the presence of the test compound and PAI-1. Control treatments include the complete inhibition of tPA by PAI-1 at the molar ratio employed (2:1), and the absence of any effect of the test compound on tPA alone.

The target in the next data set is human PAI-1 (Homo sapiens, UniProt P05121). In words: Antibody Assay for Determining IC50 of Inhibition of PAI-1 (active PAI-1 bound to tPA-coated plate, 33B8 antibody). Format: binding. How it is done: Assay for Determining IC50 of Inhibition of PAI-1
This assay is based upon the non-SDS dissociable interaction between tPA and active PAI-1. Assay plates are initially coated with human tPA (10 μg/ml). Test compounds are dissolved in DMSO at 10 mM, then diluted with physiologic buffer (pH 7.5) to a final concentration of 1-50 μM. Test compounds are incubated with human PAI-1 (50 ng/ml) for 15 minutes at room temperature. The tPA-coated plate is washed with a solution of 0.05% Tween 20 and 0.1% BSA, then the plate is blocked with a solution of 3% BSA. […] The plate is again washed, and a solution of goat anti-mouse IgG-alkaline phosphatase conjugate is added at a 1:50,000 dilution in goat serum. The plate is incubated 30 minutes at room temperature, washed, and a solution of alkaline phosphatase substrate is added. The plate is incubated 45 minutes at room temperature, and color development is determined at OD405nm. […] Results are analyzed using a logarithmic best-fit equation. The assay sensitivity is 5 ng/ml of human PAI-1 as determined from a standard curve ranging from 0-100 ng/ml.

Data set [2] concerns the target T1, recombinant human plasminogen activator inhibitor-1 (PAI-1). Description: Primary Screen for the PAI-1 Inhibition (residual tPA activity, Spectrozyme-tPA chromogenic substrate). In kind it is biochemical. The following applies: 25 μM test compound. How it is done:
as §1, §2

The mark [3] stands for this setting: footnote a: determined by the Antibody Assay, read-out: IC50.

T1 sequence (P05121 24-402): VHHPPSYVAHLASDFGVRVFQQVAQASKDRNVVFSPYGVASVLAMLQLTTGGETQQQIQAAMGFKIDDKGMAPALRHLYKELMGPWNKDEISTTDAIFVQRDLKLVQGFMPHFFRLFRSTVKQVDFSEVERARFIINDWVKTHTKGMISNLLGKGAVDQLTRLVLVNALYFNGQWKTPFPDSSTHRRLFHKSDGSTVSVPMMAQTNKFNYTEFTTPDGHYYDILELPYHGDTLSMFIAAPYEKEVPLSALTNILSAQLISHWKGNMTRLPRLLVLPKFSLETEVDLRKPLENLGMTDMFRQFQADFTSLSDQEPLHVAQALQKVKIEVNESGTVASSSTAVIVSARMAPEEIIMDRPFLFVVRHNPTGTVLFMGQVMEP
Sequence of human PAI-1 (P05121 24-402): as above

Take `Cn1cc(C(=O)C(=O)O)c2ccc(-c3ccc(C(F)(F)F)cc3)cc21` [Example 2, {1-Methyl-6-[4-(trifluoromethyl)phenyl]-1H-indol-3-yl}(oxo)acetic acid]: the melting point was 256 to 257 °C (dec.). The half-inhibitory concentration (IC50) in data set [1] amounted to 32 µM.
Regarding `O=C(O)C(=O)c1cn(Cc2ccccc2)c2cc(-c3ccc(OC(F)(F)F)cc3)ccc12` [Example 5, {1-Benzyl-6-[4-(trifluoromethoxy)phenyl]-1H-indol-3-yl}(oxo)acetic acid], the IC50 on human PAI-1 amounted to 17.3 µM.
Turning to `CC(C)(C)c1ccc(Cn2cc(C(=O)C(=O)O)c3ccc(-c4ccc(OC(F)(F)F)cc4)cc32)cc1` [Example 8, {1-[4-(tert-Butyl)benzyl]-6-[4-(trifluoromethoxy)phenyl]-1H-indol-3-yl}(oxo)acetic acid], in data set [1], the IC50 is 11.2 µM.
On to `O=C(O)C(=O)c1cn(Cc2ccccc2)c2ccc(-c3ccc(F)c(Cl)c3)cc12` [Example 15, [1-Benzyl-5-(3-chloro-4-fluorophenyl)-1H-indol-3-yl](oxo)acetic acid], for which the melting point was 145 to 146 °C (dec.). Besides, the half-inhibitory concentration (IC50) in data set [1] was 6.5 µM.
The molecule `O=C(O)C(=O)c1cn(Cc2ccccc2)c2ccc(-c3cc(C(F)(F)F)cc(C(F)(F)F)c3)cc12` [Example 16, {1-Benzyl-5-[3,5-bis(trifluoromethyl)phenyl]-1H-indol-3-yl}(oxo)acetic acid] displayed a melting point of 206 to 207 °C. In addition, the half-inhibitory concentration (IC50) at human PAI-1 (setting [3]) is 11.5 µM.
For `O=C(O)C(=O)c1cn(Cc2ccccc2)c2c(-c3ccc(OC(F)(F)F)cc3)cccc12` [Example 17, {1-Benzyl-7-[4-(trifluoromethoxy)phenyl]-1H-indol-3-yl}(oxo)acetic acid], the IC50 on human PAI-1 (setting [3]) stood at 10 µM.
In turn, `O=C(O)C(=O)c1cn(Cc2ccccc2)c2c(-c3ccc(F)c(Cl)c3)cccc12` [Example 18, [1-Benzyl-7-(3-chloro-4-fluorophenyl)-1H-indol-3-yl](oxo)acetic acid] returned a melting point of 153 to 156 °C. Further, the IC50 in data set [1] was found to be 19.4 µM.
For `CC(C)(C)c1ccc(Cn2cc(C(=O)C(=O)O)c3cc(-c4ccc(OC(F)(F)F)cc4)ccc32)cc1` [Example 19, {1-(4-tert-Butylbenzyl)-5-[4-(trifluoromethoxy)phenyl]-1H-indol-3-yl}(oxo)acetic acid], the IC50 in data set [1] is 15.8 µM.
Regarding `O=C(O)C(=O)c1cn(Cc2ccccc2)c2cc(-c3cccc(Cl)c3)ccc12` [Example 21, [1-Benzyl-6-(3-chlorophenyl)-1H-indol-3-yl](oxo)acetic acid], the melting point lay in the range of 186 to 188 °C. Besides, the IC50 at human PAI-1 (setting [3]) stood at 19.9 µM.
In the case of `O=C(O)C(=O)c1cn(Cc2ccccc2)c2ccc(-c3cccc(OC(F)(F)F)c3)cc12` [Example 22, {1-Benzyl-5-[3-(trifluoromethoxy)phenyl]-1H-indol-3-yl}(oxo)acetic acid], on human PAI-1 (setting [3]), the IC50 amounted to 9.7 µM.
As for `O=C(O)C(=O)c1cn(Cc2ccc(F)cc2)c2ccc(-c3ccccc3)cc12` [Example 28, [1-(4-Fluorobenzyl)-5-phenyl-1H-indol-3-yl](oxo)acetic acid], the melting point fell in the range of 165 to 166 °C. For the same molecule, the IC50 at human PAI-1 (setting [3]) was found to be 35 µM.
Consider `CCCCn1cc(C(=O)C(=O)O)c2cc(-c3ccc(Cl)cc3)ccc21` [Example 29, [1-Butyl-5-(4-chlorophenyl)-1H-indol-3-yl](oxo)acetic acid], for which the melting point was 136 to 137 °C. The molecule also returned an IC50 against human PAI-1 of 12.5 µM.
Take `CCCCn1cc(C(=O)C(=O)O)c2cc(-c3ccc(C(F)(F)F)cc3)ccc21` [Example 33, {1-Butyl-5-[4-(trifluoromethyl)phenyl]-1H-indol-3-yl}(oxo)acetic acid]: the melting point worked out at 149 °C. Further, the IC50 on human PAI-1 (setting [3]) was found to be 10.5 µM.
On to `Cc1cccc(-c2ccc3c(c2)c(C(=O)C(=O)O)cn3Cc2ccc(C(C)(C)C)cc2)c1` [Example 34, [1-(4-tert-Butylbenzyl)-5-(3-methylphenyl)-1H-indol-3-yl](oxo)acetic acid], for which the IC50 in data set [1] amounted to 6.2 µM.
On the same count and under the same terms, with `COc1cccc(-c2ccc3c(c2)c(C(=O)C(=O)O)cn3Cc2ccc(C(C)(C)C)cc2)c1` [Example 35, [1-(4-tert-Butylbenzyl)-5-(3-methoxyphenyl)-1H-indol-3-yl](oxo)acetic acid] the figure was 14.6 µM.
In the case of `CC(C)(C)c1ccc(Cn2cc(C(=O)C(=O)O)c3cc(-c4ccc(C(C)(C)C)cc4)ccc32)cc1` [Example 36, [1-(4-tert-Butylbenzyl)-5-(4-tert-butylphenyl)-1H-indol-3-yl](oxo)acetic acid], the melting point was 111 to 112 °C. Further, on human PAI-1 (setting [3]), the concentration for half-maximal inhibition (IC50) stood at 10 µM.
The matching figures for `CC(C)(C)c1ccc(Cn2cc(C(=O)C(=O)O)c3cc(-c4cccc(Cl)c4)ccc32)cc1` [Example 37, [1-(4-tert-Butylbenzyl)-5-(3-chlorophenyl)-1H-indol-3-yl](oxo)acetic acid]: 138 to 139 °C and 16.4 µM.
On to `Cc1ccccc1-c1ccc2c(c1)c(C(=O)C(=O)O)cn2Cc1ccc(C(C)(C)C)cc1` [Example 39, [1-(4-tert-Butylbenzyl)-5-(2-methylphenyl)-1H-indol-3-yl](oxo)acetic acid], for which the melting point lay within 97 to 98 °C. The IC50 on human PAI-1 (setting [3]) is 21.6 µM.
The matching figures for `Cc1ccc(Cn2c(CO)c(C(=O)C(=O)[O-])c3cc(-c4ccc(OC(F)(F)F)cc4)ccc32)cc1.[K+]` [Example 42, {2-(Hydroxymethyl)-1-(4-methylbenzyl)-5-[4-(trifluoromethoxy)phenyl]-1H-indol-3-yl}(oxo)acetic acid, potassium salt]: 248 to 249.5 °C and 45.7 µM.
The matching figures for `CC(=O)OCc1c(C(=O)C(=O)O)c2cc(-c3ccc(OC(F)(F)F)cc3)ccc2n1Cc1ccccc1` [Example 43, {2-[(Acetyloxy)methyl]-1-benzyl-5-[4-(trifluoromethoxy)phenyl]-1H-indol-3-yl}(oxo)acetic acid]: 85 to 86 °C and 17.2 µM.
The matching figures for `O=C([O-])C(=O)c1c(CO)n(Cc2ccccc2)c2ccc(-c3ccc(OC(F)(F)F)cc3)cc12.[K+]` [Example 44, {1-Benzyl-2-(hydroxymethyl)-5-[4-(trifluoromethoxy)phenyl]-1H-indol-3-yl}(oxo)acetic acid, potassium salt]: 280 to 282 °C and 26.3 µM.
Consider `O=C(O)C(=O)c1cn(CC2CCCCC2)c2ccc(-c3cccc(Cl)c3)cc12` [Example 48, [5-(3-chlorophenyl)-1-(cyclohexylmethyl)-1H-indol-3-yl](oxo)acetic acid], for which the IC50 on human PAI-1 (setting [3]) was 13.3 µM.
Take `Cn1cc(C(=O)O)c2ccc(-c3ccc(C(F)(F)F)cc3)cc21` [Example 60, 1-Methyl-6-(4-trifluoromethyl-phenyl)-1H-indole-3-carboxylic acid]: the melting point is 237 to 239 °C (dec.). The inhibition at 25 µM in data set [2] is 39%.
With `Cn1cc(C(=O)O)c2ccc(-c3ccc(C(C)(C)C)cc3)cc21` [Example 61, 6-(4-tert-Butyl-phenyl)-1-methyl-1H-indole-3-carboxylic acid], the melting point was 236 to 238 °C (dec.). For the same molecule, the inhibition at 25 µM in data set [2] stood at 28%.
Molecule `O=C(O)c1cn(Cc2ccccc2)c2ccc(-c3ccc(F)c(Cl)c3)cc12` [Example 62, 1-Benzyl-5-(3-chloro-4-fluoro-phenyl)-1H-indole-3-carboxylic acid] yielded a melting point of 189 to 194 °C. Besides, at human PAI-1, it took 11.2 µM to reach half-maximal inhibition (IC50). Further, the inhibition at 25 µM in data set [2] was 53%.
